Like-named read-outs stand apart in the source and are kept apart here.
How the values were obtained:
[1] = test system: A549 human lung carcinoma cells; assay: MTT cytotoxicity assay in A549 cells; format: cell-based; conditions: IC50 versus CPT

| Structure (SMILES) | time for ester bond hydrolysis (PB pH 6.6, 37 °C) [h] | time for ester bond hydrolysis (PB pH 7.0, 37 °C) | time for ester bond hydrolysis (PB pH 7.4, 37 °C) [h] | fold less potent than parent drug (CPT) [1] | stability (rank among prodrugs) (PB pH 6.6, 7.0 and 7.4) | CPT reconversion rate (rank among prodrugs) (PB pH 6.6, 7.0 and 7.4) |
| --- | --- | --- | --- | --- | --- | --- |
| CC[C@@H](N)C(=O)O[C@]1(CC)C(=O)OCc2c1cc1n(c2=O)Cc2cc3ccccc3nc2-1 [Prodrug 2c] | 120 | ~ 120 h | ≤ 96 |  |  |  |
| CC[C@@]1(OC(=O)[C@@H](C)N)C(=O)OCc2c1cc1n(c2=O)Cc2cc3ccccc3nc2-1 [Prodrug 2b] | 96 | 96 h | ≤ 72 | ~20 fold |  |  |
| CCC[C@@H](N)C(=O)O[C@]1(CC)C(=O)OCc2c1cc1n(c2=O)Cc2cc3ccccc3nc2-1 [Prodrug 2d] | 144 | ≤ 120 h | ≤ 120 |  | most stable |  |
| CC[C@@]1(OC(=O)CN)C(=O)OCc2c1cc1n(c2=O)Cc2cc3ccccc3nc2-1 [Prodrug 2a] | ≤ 96 | ≤ 96 h | ≤ 72 | about 2 fold |  | fastest |

— article PMC3901077 (Journal of medicinal chemistry, 2010)
